Test results published in article PMC7772748 (Amino acids, 2020).
Where no end group is shown, it is not given here.

Tests used:
[1] = test system: CRF(1–16)/R1ΔN chimera of CRF1R (HEK 293 cells, transient expression); conditions: ref Nielsen et al. 2000; cited from earlier work
[2] = test system: RAW 264.7 cells; test: Proliferation assay; format: cell-based; conditions: 1 μM, third day of culture (72 h), MTT; n = 3 experiments
[3] = test system: 3T3L1 mature adipocytes; test: CXCL1 release from differentiated 3T3L1 white adipocytes; format: cell-based, mouse; conditions: 10 nM CRF alone, 24 h, differentiated white 3T3L1 adipocytes, ELISA

| Compound | block of the constitutive activity (activation) of the CRF(1–16)/R1ΔN chimera [1] | proliferation rate of RAW 264.7 cells compared to vehicle-treated cells [2] | production of CXCL1 compared to untreated (control) cells [3] |
| --- | --- | --- | --- |
| CCCCN(CC)c1nc(C)nc2c1c(C)c(C)n2-c1c(C)cc(C)cc1C [antalarmin] | blocked | – | – |
| astressin | not blocked | levels similar to those achieved with astressin | – |
| corticotropin-releasing factor (SEEPPISLDLTFHLLREVLEMARAEQLAQQAHSNRKLMEII; ends and bridges not checked; UniProt P06850 154-194, looked up) [CRF] | – | – | significantly reduced |
